Results on 15 molecules are retold here after article PMC7226602, “Exploring Biased Agonism at FPR1 as a Means to Encode Danger Sensing” (Cells, 2020).

Data set [1] concerns the target T1, human FPR1 (Homo sapiens, UniProt P21462).
T1 construct: expressed in transfected cells
T1 sequence (P21462 1-350): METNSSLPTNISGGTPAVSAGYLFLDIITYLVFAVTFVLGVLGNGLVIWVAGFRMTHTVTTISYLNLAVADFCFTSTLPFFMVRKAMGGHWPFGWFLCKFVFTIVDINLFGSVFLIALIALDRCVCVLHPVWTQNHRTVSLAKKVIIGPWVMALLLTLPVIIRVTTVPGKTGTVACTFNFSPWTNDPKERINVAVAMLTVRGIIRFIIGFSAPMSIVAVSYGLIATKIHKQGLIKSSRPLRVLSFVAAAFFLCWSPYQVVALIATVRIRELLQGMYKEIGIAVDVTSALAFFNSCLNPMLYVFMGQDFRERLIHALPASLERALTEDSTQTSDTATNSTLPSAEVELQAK
As to the kind of experiment: cell-based.

Data set [2] has as its target T1, human FPR1. Put plainly: HTRF-based quantification of MAPK/ERK phosphorylation (ERK1/2 Thr202/Tyr204). The class given is cell-based. The settings on record: HeLa-FPR1 cells serum-starved 2 h, agonist 5 min, 37 °C, HTRF phospho-ERK1/2, four-parameter fit, Hill 1, mean and SEM, at least 5 independent measurements; for EC50: read-out: ERK1/2 Activation logEC50 (converted).

The conditions of data set [3]: solvent DMSO; as indicated by the manufacturer; ref manufacturer; cited from earlier work.
For data set [4], the target named is T1, human FPR1. As to the kind of experiment: Flow cytometric analysis of agonist-induced receptor internalization. Type of data set: cell-based. The conditions noted are these: HeLa-FPR1 cells; for EC50: agonist 15 min, 37 °C, flow cytometry of surface FLAG-FPR1 (M1 antibody), mean and SEM, 6 independent measurements, NR = no response, read-out: Internalization logEC50 (converted).

In data set [5] the target is human formyl peptide receptor 1 (FPR1), N-terminally FLAG-tagged (human) (UniProt P21462).

Where a SMILES comes first, the peptide text is derived from it. Where no end group is shown, it is not given here. The star is where a group is joined. For = O=C*

Take `CSCC[C@H](NC=O)C(=O)N[C@@H](CC(N)=O)C(=O)N1CCC[C@H]1C(=O)N[C@@H](CC(C)C)C(=O)N[C@@H](C)C(=O)N[C@@H](CCC(N)=O)C(=O)O` [MT-ND2] (For-MNPLAQ-OH): the EC50 on human FPR1 [1] was 2040 nM; at human FPR1 [2] it was 6170 nM.
Consider `CC(C)C[C@H](NC(=O)CN)C(=O)N[C@@H](CC(C)C)C(=O)N[C@@H](Cc1c[nH]c2ccccc12)C(=O)N[C@H](C(=O)N[C@@H](CCC(=O)O)C(=O)N[C@H](C(=O)NCC(=O)NCC(=O)N[C@@H](CCC(=O)O)C(=O)NCC(=O)N1CCC[C@H]1C(=O)NCC(=O)N1CCC[C@H]1C(=O)N[C@H](C(=O)O)[C@@H](C)O)C(C)C)C(C)C` [gG2p20] (H-GLLWVEVGGEGPGPT-OH), for which the EC50 on human FPR1 [1] (HeLa-FPR1 cells, 5 µM forskolin + 500 µM IBMX with agonist, 30 min, 37 °C, HTRF, […], mean and SEM, at least 7 independent measurements, read-out: cAMP Formation logEC50 (converted)) was 437 nM; on human FPR1 [2], 708 nM. Further, the Solubility in data set [3] is 2000 µg/mL.
Consider `COc1cc(/C=N/NC(=O)c2ccc3c(c2)OCO3)ccc1OCc1ccccc1` [FPRA14], for which the “cAMP Formation logEC50” value on human FPR1 [1] (HeLa-FPR1 cells, 5 µM forskolin + 500 µM IBMX with agonist, 30 min, 37 °C, HTRF, […], mean and SEM, at least 7 independent measurements) is given as −5.94 0.19. The “ERK1/2 Activation logEC50” value at human FPR1 [2] is recorded as −6.06 0.05. The “agonist-induced FPR1 internalization (decrease of cell surface-associated FPR1 pool), in words” value at human FPR1 [4] (15 min after agonist addition, flow cytometry) was “did not elicit detectable internalization”. Moreover, in data set [3], the Solubility is on record as 100 mM.
Consider `CSCC[C@H](NC=O)C(=O)N[C@@H](CCSC)C(=O)N[C@@H](Cc1ccc(O)cc1)C(=O)N[C@@H](C)C(=O)N[C@@H](CC(C)C)C(=O)N[C@@H](Cc1ccccc1)C(=O)O` [MT-ND6] (For-MMYALF-OH), for which the EC50 at human FPR1 [1] is 74.1 nM; on human FPR1 [2] it was 2.19 nM; at human FPR1 [4], 776 nM.
On to `CC[C@H](C)[C@H](NC(=O)[C@H](Cc1ccccc1)NC(=O)[C@H](Cc1c[nH]c2ccccc12)NC(=O)[C@H](C)NC(=O)[C@H](CCC(N)=O)NC(=O)[C@H](CCCCN)NC(=O)[C@H](CC(C)C)NC(=O)[C@H](Cc1ccccc1)NC(=O)[C@H](CCC(=O)O)NC(=O)[C@H](CO)NC(=O)[C@@H](NC(=O)[C@H](CCSC)NC(=O)[C@H](C)NC(C)=O)C(C)C)C(=O)N[C@@H](CCC(=O)O)C(=O)N[C@@H](CC(N)=O)C(=O)N[C@@H](CCC(=O)O)C(=O)N[C@@H](CCC(=O)O)C(=O)N[C@@H](CCC(N)=O)C(=O)N[C@@H](CCC(=O)O)C(=O)N[C@@H](Cc1ccc(O)cc1)C(=O)N[C@H](C(=O)N[C@@H](CCC(N)=O)C(=O)N[C@H](C(=O)N[C@H](C(=O)N[C@@H](CCCCN)C(=O)O)C(C)C)[C@@H](C)O)C(C)C` [Ac2-26] (Ac-AMVSEFLKQAWFIENEEQEYVQTVK-OH), for which the values for the EC50 on human FPR1 [1] and at human FPR1 [2] were 49000 nM and 74100 nM, respectively.
Turning to `CC[C@H](C)[C@H](NC(=O)[C@H](CCSC)NC=O)C(=O)N[C@H](C(=O)N[C@H](C(=O)N[C@@H](CC(C)C)C(=O)O)[C@@H](C)CC)C(C)C` [fMIVIL] (For-MIVIL-OH), the EC50 on human FPR1 [1] was 0.871 nM; on human FPR1 [2] it was 1.55 nM; at human FPR1 [4], 79.4 nM.
For the molecule `CSCC[C@H](NC=O)C(=O)N[C@@H](CC(C)C)C(=O)N[C@@H](Cc1ccccc1)C(=O)O` [fMLF, formyl-methionyl-leucyl-phenylalanine], the Solubility in data set [3] was 4000 µg/mL.
Turning to `CC[C@H](C)[C@H](NC(=O)[C@H](CC(C)C)NC(=O)[C@H](CCCCN)NC(=O)[C@H](CCSC)NC(=O)[C@H](CC(C)C)NC(=O)[C@@H]1CCCN1C(=O)[C@H](CC(N)=O)NC(=O)[C@@H](NC(=O)[C@H](CCCCN)NC(=O)[C@H](CCCNC(=N)N)NC(=O)[C@H](CCSC)NC(=O)[C@@H]1CCCN1C(=O)[C@@H](NC(=O)[C@H](CCSC)NC=O)[C@@H](C)O)[C@@H](C)O)C(=O)N[C@@H](CC(N)=O)C(=O)O` [CYTB] (For-MTPMRKTNPLMKLIN-OH), the EC50 at human FPR1 [1] is 3020 nM; at human FPR1 [2], 7760 nM.
In data set [5], For-MNPLAQ yielded an EmaxA of inhibition of forskolin-induced cAMP formation, HeLa-FPR1 cells (HTRF, 30 min; normalised to forskolin) (fraction of the maximum system response) of 0.63 and a logEC50 of inhibition of forskolin-induced cAMP formation, HeLa-FPR1 cells (HTRF, 30 min) (log M (unit not given)) of -5.69.
For Ac-AMVSEFLKQAWFIENEEQEYVQTVK [acetylated peptide Ac2-26 corresponding to the N-terminus of human annexin A1], in that order: 0.63 and -4.31.
As for For-MMYALF, in data set [5], the EmaxA of agonist-induced FPR1 internalization, HeLa-FPR1 cells (flow cytometry, 15 min; normalised to 10^-4 M W-peptide) (fraction of the maximum system response) worked out at 0.63; the EmaxA of inhibition of forskolin-induced cAMP formation, HeLa-FPR1 cells (HTRF, 30 min; normalised to forskolin) (fraction of the maximum system response) worked out at 0.66; the logEC50 of agonist-induced FPR1 internalization, HeLa-FPR1 cells (flow cytometry, 15 min) (log M (unit not given)) was -6.11; the logEC50 of inhibition of forskolin-induced cAMP formation, HeLa-FPR1 cells (HTRF, 30 min) (log M (unit not given)) was -7.13.
The matching figures for WKYMVM [synthetic agonist W-peptide (WKYMVm)]: 1, 0.82, -7.66 and -8.96.
In data set [5], For-MTPMRKTNPLMKLIN [formylated peptide corresponding to the N-terminus of human cytochrome b (CYTB; f…)] showed an EmaxA of inhibition of forskolin-induced cAMP formation, HeLa-FPR1 cells (HTRF, 30 min; normalised to forskolin) (fraction of the maximum system response) of 0.39 and a logEC50 of inhibition of forskolin-induced cAMP formation, HeLa-FPR1 cells (HTRF, 30 min) (log M (unit not given)) of -5.52.
For GLLWVEVGGEGPGPT (not fully specified) [gG-2p20 peptide derived from the secreted glycoprotein sgG-2 of herpes simplex virus type 2 (HSV-2)], in that order: 0.68 and -6.36.
As to For-MIVIL [formylated pentapeptide fMIVIL from Listeria monocytogenes], in data set [5], the EmaxA of agonist-induced FPR1 internalization, HeLa-FPR1 cells (flow cytometry, 15 min; normalised to 10^-4 M W-peptide) (fraction of the maximum system response) was 0.97; the EmaxA of inhibition of forskolin-induced cAMP formation, HeLa-FPR1 cells (HTRF, 30 min; normalised to forskolin) (fraction of the maximum system response) is 0.82; the logEC50 of agonist-induced FPR1 internalization, HeLa-FPR1 cells (flow cytometry, 15 min) (log M (unit not given)) was -7.1; the logEC50 of inhibition of forskolin-induced cAMP formation, HeLa-FPR1 cells (HTRF, 30 min) (log M (unit not given)) was -9.06.
